Measured values: patent US12600709B2, “Nonpeptide somatostatin type 5 receptor agonists and uses thereof” (Crinetics Pharmaceuticals, Inc., priority 2019, dated 2026)
Read-outs that look alike come from different tables or passages of the source.

What was measured:
[1] = biological target: T1, human somatostatin receptor subtype 5 (Homo sapiens, UniProt P35346); assay: cAMP assay for SST5R (inhibition of cAMP in CHO-K1 cells); assay type: cell-based; details: for EC50: inhibition of cAMP via human SST5 receptor, read-out: SST5 potency; for Fold selectivity for SST5 vs SST2: class symbols, SST5 receptor over SST2 receptor
T1 construct: expressed in transfected cells
Outline: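 CHO-K1 cells stably expressing human SSTR5 were treated 20 min at 37 °C with compounds plus 1.6 μM NKH477 in HBSS, 0.5 mM HEPES pH 7.4, 0.1% BSA, 0.2 mM IBMX. Lysate cAMP measured by HTRF against a standard curve; EC50 from cAMP-versus-concentration plots.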

[2] = biological target: T2, human somatostatin receptor subtype 2 (Homo sapiens, UniProt P30874); assay: cAMP assay for SST2R (inhibition of cAMP in CHO-K1 cells); assay type: cell-based; details: Table B; inhibition of cAMP via human SST2 receptor; read-out: SST2 potency
T2 construct: expressed in transfected cells
Outline: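 Agonism read as decrease in NKH477 (1.6 μM)-stimulated cAMP: compounds applied 20 min, 37° C, with 0.2 mM IBMX, to CHO-K1 stably expressing human SSTR2. cAMP quantified in lysates by time-resolved fluorescence (HTRF kit, 1-24 h RT), standard-curve regression, then EC50.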

T1 sequence (P35346 whole entry): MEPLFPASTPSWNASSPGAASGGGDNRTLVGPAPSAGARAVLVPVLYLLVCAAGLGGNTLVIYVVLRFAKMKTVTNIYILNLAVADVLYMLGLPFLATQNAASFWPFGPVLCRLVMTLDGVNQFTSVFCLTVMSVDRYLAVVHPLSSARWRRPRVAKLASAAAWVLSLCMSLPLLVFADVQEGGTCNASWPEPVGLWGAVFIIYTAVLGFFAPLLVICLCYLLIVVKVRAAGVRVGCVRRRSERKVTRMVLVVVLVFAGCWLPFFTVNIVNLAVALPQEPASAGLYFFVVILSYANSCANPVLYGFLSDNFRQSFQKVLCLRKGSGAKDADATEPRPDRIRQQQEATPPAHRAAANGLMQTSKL
T2 sequence (P30874 whole entry): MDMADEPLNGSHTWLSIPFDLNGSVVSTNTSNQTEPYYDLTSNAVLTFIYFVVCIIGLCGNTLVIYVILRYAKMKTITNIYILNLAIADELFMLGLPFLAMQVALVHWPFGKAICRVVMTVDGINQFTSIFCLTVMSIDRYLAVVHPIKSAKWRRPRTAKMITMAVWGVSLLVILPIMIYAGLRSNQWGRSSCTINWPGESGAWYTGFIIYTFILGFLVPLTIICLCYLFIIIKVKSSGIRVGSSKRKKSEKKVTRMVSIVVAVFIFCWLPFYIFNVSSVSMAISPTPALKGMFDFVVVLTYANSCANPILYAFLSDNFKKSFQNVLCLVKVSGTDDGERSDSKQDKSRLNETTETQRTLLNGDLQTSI

Structure (SMILES)	EC50 ([1]; Table A)	Fold selectivity for SST5 vs SST2 ([1]; Table B)	EC50 ([1]; Table B)	EC50 [2]
N[C@H]1CCN(c2c(C(=O)NC34CC(F)(C3)C4)cnc(C(F)(F)F)c2-c2cc(F)cc(F)c2)C1 [1-216, 4-[(3S)-3-aminopyrrolidin-1-yl]-5-(3,5-difluorophenyl)-N-{3-fluorobicyclo[1.1.1]pentan-1-yl}-6-(trifluoromethyl)pyridine-3-carboxamide]	< 10 nM	+++ (+++=>500)	< 10 nM	> 1000 nM
Cc1cc(F)cc(-c2cncc(C(=O)NC3CCc4ccccc43)c2N2CC[C@](C)(N)C2)c1 (stereo partly drawn) [1-17, 4-[(3S)-3-amino-3-methylpyrrolidin-1-yl]-N-(2,3-dihydro-1H-inden-1-yl)-5-(3-fluoro-5-methylphenyl)pyridine-3-carboxamide]	< 10 nM	++ (++=100 to 499)	< 10 nM	100 to 1000 nM
CCC(CC)NC(=O)c1cnc(C#N)c(-c2ccnc(OC)c2)c1N1CC[C@](C)(N)C1 [1-253, 4-[(3S)-3-amino-3-methylpyrrolidin-1-yl]-2-cyano-2′-methoxy-N-(pentan-3-yl)-[3,4′-bipyridine]-5-carboxamide]	< 10 nM	+++ (+++=>500)	< 10 nM	100 to 1000 nM
C[C@]1(N)CCN(c2c(C(=O)NC3CC(F)(F)C3)cncc2-c2cc(F)cc(Cl)c2)C1 [1-35, 4-[(3S)-3-amino-3-methylpyrrolidin-1-yl]-5-(3-chloro-5-fluorophenyl)-N-(3,3-difluorocyclobutyl)pyridine-3-carboxamide]	< 10 nM	++ (++=100 to 499)	< 10 nM	100 to 1000 nM
COc1ncc(C(=O)NC2CCC(F)(F)CC2)c(N2CC[C@H](N)C2)c1-c1cc(F)cc(Cl)c1 [1-284, 4-[(3S)-3-aminopyrrolidin-1-yl]-5-(3-chloro-5-fluorophenyl)-N-(4,4-difluorocyclohexyl)-6-methoxypyridine-3-carboxamide]	< 10 nM	+++ (+++=>500)	< 10 nM	100 to 1000 nM
N[C@H]1CCN(c2c(C(=O)NC(C3CC3)C3CC3)cncc2-c2cc(F)cc(Cl)c2)C1 [1-61, 4-[(3S)-3-aminopyrrolidin-1-yl]-5-(3-chloro-5-fluorophenyl)-N-(dicyclopropylmethyl)pyridine-3-carboxamide]	< 10 nM	+++ (+++=>500)	< 10 nM	> 1000 nM
C[C@]1(N)CCN(c2c(C(=O)NC34CC(C3)C4)cncc2-c2cc(F)cc(F)c2)C1 [1-21, 4-[(3S)-3-amino-3-methylpyrrolidin-1-yl]-N-{bicyclo[1.1.1]pentan-1-yl}-5-(3,5-difluorophenyl)pyridine-3-carboxamide]	< 10 nM	++ (++=100 to 499)	< 10 nM	10 to 100 nM
COc1ncc(C(=O)N[C@@H](C)C(F)(F)F)c(N2CC[C@](C)(N)C2)c1-c1c(C)noc1C [1-187, 4-[(3S)-3-amino-3-methylpyrrolidin-1-yl]-5-(3,5-dimethyl-1,2-oxazol-4-yl)-6-methoxy-N-[(2S)-1,1,1-trifluoropropan-2-yl]pyridine-3-carboxamide]	< 10 nM	+++ (+++=>500)	< 10 nM	> 1000 nM
CC(C)NC(=O)c1cnc(C#N)c(-c2cc(F)cc(F)c2)c1N1CC[C@](C)(N)C1 [1-91, 4-[(3S)-3-amino-3-methylpyrrolidin-1-yl]-6-cyano-5-(3,5-difluorophenyl)-N-(propan-2-yl)pyridine-3-carboxamide]	< 10 nM	+++ (+++=>500)	< 10 nM	100 to 1000 nM
C[C@H](NC(=O)c1cnc(OCC(=O)O)c(-c2cc(F)cc(F)c2)c1N1CC[C@](C)(N)C1)C1CC1 [1-247, 2-({4-[(3S)-3-amino-3-methylpyrrolidin-1-yl]-5-{[(1S)-1-cyclopropylethyl]carbamoyl}-3-(3,5-difluorophenyl)pyridin-2-yl}oxy)acetic acid]	< 10 nM	+++ (+++=>500)	< 10 nM	> 1000 nM
C[C@H](NC(=O)c1cnc(OCC2COC2)c(-c2cc(F)cc(F)c2)c1N1CC[C@](C)(N)C1)C1CC1 [1-266, 4-[(3S)-3-amino-3-methylpyrrolidin-1-yl]-N-[(1S)-1-cyclopropylethyl]-5-(3,5-difluorophenyl)-6-[(oxetan-3-yl)methoxy]pyridine-3-carboxamide]	< 10 nM	+++ (+++=>500)	< 10 nM	> 1000 nM
C[C@H](NC(=O)c1cnc(C#N)c(-c2cccc(OC(F)(F)F)c2)c1N1CC[C@](C)(N)C1)C1CC1 [1-127, 4-[(3S)-3-amino-3-methylpyrrolidin-1-yl]-6-cyano-N-[(1S)-1-cyclopropylethyl]-5-[3-(trifluoromethoxy)phenyl]pyridine-3-carboxamide]	< 10 nM	+++ (+++=>500)	< 10 nM	100 to 1000 nM

Next, values leading:

EC50 ([1]; Table A)	Fold selectivity for SST5 vs SST2 ([1]; Table B)	EC50 ([1]; Table B)	EC50 [2]	Structure (SMILES)
< 10 nM	+++ (+++=>500)	< 10 nM	100 to 1000 nM	Cc1ncc(C(=O)NC2CCC(F)(F)CC2)c(N2CC[C@](C)(N)C2)c1-c1cc(F)cc(OC(F)F)c1 [1-174, 4-[(3S)-3-amino-3-methylpyrrolidin-1-yl]-N-(4,4-difluorocyclohexyl)-5-[3-(difluoromethoxy)-5-fluorophenyl]-6-methylpyridine-3-carboxamide]
< 10 nM	+++ (+++=>500)	< 10 nM	100 to 1000 nM	Cc1ncc(C(=O)N[C@@H](C)C2CC2)c(N2CC[C@](C)(N)C2)c1-c1ccc(F)c(F)c1 [1-288, 4-[(3S)-3-amino-3-methylpyrrolidin-1-yl]-N-[(1S)-1-cyclopropylethyl]-5-(3,4-difluorophenyl)-6-methylpyridine-3-carboxamide]
< 10 nM	+++ (+++=>500)	< 10 nM	> 1000 nM	CCOC(=O)CCCOc1ncc(C(=O)NC2CCC(F)(F)CC2)c(N2CC[C@H](N)C2)c1-c1cc(F)cc(F)c1 [1-202, ethyl 4-({4-[(3S)-3-aminopyrrolidin-1-yl]-5-[(4,4-difluorocyclohexyl)carbamoyl]-3-(3,5-difluorophenyl)pyridin-2-yl}oxy)butanoate]
< 10 nM	++ (++=100 to 499)	< 10 nM	10 to 100 nM	C[C@H](NC(=O)c1cncc(-c2cc(F)cc(F)c2)c1N1CC[C@](C)(N)C1)C1CC1 [1-41, 4-[(3S)-3-amino-3-methylpyrrolidin-1-yl]-N-[(1S)-1-cyclopropylethyl]-5-(3,5-difluorophenyl)pyridine-3-carboxamide]
10 to 100 nM	++ (++=100 to 499)	10 to 100 nM	> 1000 nM	C[C@]1(N)CCN(c2c(C(=O)NC3CCC(F)(F)CC3)cncc2-c2cccc(C#N)c2)C1 [1-10, 4-[(3S)-3-amino-3-methylpyrrolidin-1-yl]-5-(3-cyanophenyl)-N-(4,4-difluorocyclohexyl)pyridine-3-carboxamide]
< 10 nM	+++ (+++=>500)	< 10 nM	10 to 100 nM	C[C@]1(N)CCN(c2c(C(=O)NC3CCCC3)cnc(C#N)c2-c2cc(F)cc(F)c2)C1 [1-78, 4-[(3S)-3-amino-3-methylpyrrolidin-1-yl]-6-cyano-N-cyclopentyl-5-(3,5-difluorophenyl)pyridine-3-carboxamide]
< 10 nM	+++ (+++=>500)	< 10 nM	100 to 1000 nM	Cc1cccc2[nH]c(-c3cncc(C(=O)N4C5CC6CC(C5)CC4C6)c3N3CC[C@](C)(N)C3)nc12 [2-26, (3S)-1-(3-{2-azatricyclo[3.3.1.1^3,7]decane-2-carbonyl}-5-(4-methyl-1H-1,3-benzodiazol-2-yl)pyridin-4-yl)-3-methylpyrrolidin-3-amine]
< 10 nM	+++ (+++=>500)	< 10 nM	> 1000 nM	COc1ncc(C(=O)N[C@@H](C)C2CC2)c(N2CC[C@](C)(N)C2)c1-c1cncc(Cl)c1 [1-167, 4-[(3S)-3-amino-3-methylpyrrolidin-1-yl]-5′-chloro-N-[(1S)-1-cyclopropylethyl]-2-methoxy-[3,3′-bipyridine]-5-carboxamide]
< 10 nM	+++ (+++=>500)	< 10 nM	> 1000 nM	CC(N)C1CN(c2c(C(=O)NC34CC(C3)C4)cnc(C#N)c2-c2cc(F)cc(F)c2)C1 (stereo not shown) [1-100, 4-[3-(1-aminoethyl)azetidin-1-yl]-N-{bicyclo[1.1.1]pentan-1-yl}-6-cyano-5-(3,5-difluorophenyl)pyridine-3-carboxamide]
< 10 nM	+++ (+++=>500)	< 10 nM	100 to 1000 nM	C[C@]1(N)CCN(c2c(C(=O)NCc3ccon3)cnc(C#N)c2-c2cc(F)cc(Cl)c2)C1 [1-244, 4-[(3S)-3-amino-3-methylpyrrolidin-1-yl]-5-(3-chloro-5-fluorophenyl)-6-cyano-N-[(1,2-oxazol-3-yl)methyl]pyridine-3-carboxamide]
